The target in data set [1] is BTK wild-type kinase (Homo sapiens (Human), UniProt Q06187). The data set can be described thus: BTK kinase activity inhibition test in vitro (Caliper EZ Reader). Format: biochemical. The method, boiled down: (§1)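 Compound (10 mM DMSO stock) preincubated with kinase 10 min at room temperature, then ATP plus kinase substrate 2 added, 10 min reaction at room temperature before stop. Substrate conversion read by Caliper mobility shift; inhibition normalised to no-enzyme and no-compound controls, IC50 by variable-slope log(inhibitor) fit.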

The subject of data set [2] is TMD8 cell proliferation. Description: In vitro cell proliferation inhibitory activity test (CTG), TMD8. The conditions noted are these: TMD8 cells, 72 h. Format: cell-based, human. The protocol:
(§2) Test Example 4: In Vitro Cell Proliferation Inhibitory Activity Test
(§3) Cells were cultured in 1640 medium, added with 10% inactivated FBS and 1% double antibiotics, and cultured at 37° C. and 5% CO2.
(§4) (1) Cells were routinely cultured until the cell density was 80%-90%, and the cells were harvested when their number reached the requirement.
(§5) (2) Cells were resuspended with corresponding culture medium, counted, and prepared into cell suspension at appropriate density.
(§6) (3) The cell suspension was added to a 96-well plate, 100 µL per well.
(§7) (4) Cells were cultured overnight in a 37° C., 5% CO2 incubator.
(§8) (1) The compounds to be tested were diluted with DMSO to make a stock solution with a final concentration of 20 mM for later use.
(§9) (2) The stock solution was diluted 10 times from 20 mM to 2 mM with DMSO, and then diluted 3 times from 2 mM to 9 concentrations.
(§10) (3) The blank control wells were cells plus 0.5% DMSO, as high-reading control wells.
(§11) (4) Wells with no cells and only medium were used as low-reading control wells.
(§12) 4: Cell Treatment With Compound
(1) 24 h after the cells were plated, the compounds acted alone, and 99 µL of growth medium was added to each well, followed by 1 µL of the compound prepared in step 3. The plate was shaken gently to mix uniformly, and then placed in a 37° C., 5% CO2 incubator.
(2) The cell plate was placed in an incubator for 72 h.
5: Detection by CTG Method
(1) The cell plate to be tested was placed at room temperature for 30 min, and 100 µL of medium was discarded from each well.
(2) 100 µL of CTG reagent (CelltiterGlo kit) was added to each well, placed on a fast shaker for 2 min, and stood at room temperature in the dark for 30 min.
(§13) (3) The chemiluminescent signal value was read with the Envision instrument.
IC50 was calculated by using GraphPad Prism 8 software. The IC50 (half inhibitory concentration) of the compound was derived using the following nonlinear fitting formula, and the results are shown in the following table: […]

The nature of data set [3]: Pharmacokinetic test, oral, SD rats. Format: in vivo. The note with it: oral 10 mg/kg, plasma; for half-life: read-out: T½ (converted). The procedure, abridged: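 Male/female status unstated; SD rats (3 per group) dosed orally at 10 mg/kg after overnight fast, refed 4 h post-dose. Plasma from serial blood draws stored at -20° C, protein-precipitated with internal standard solution and quantified by LC-MS/MS.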

Data set [4] is described as follows: Liver microsome metabolic stability test, rat. Format: in vitro ADME. The conditions noted are these: for half-life: liver microsomes, read-out: T½. The method, boiled down:
(§14)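 Test compound was incubated with rat or human liver microsomes (working solution 0.5 mg/mL protein) after a 10 min pre-incubation at 37 °C, and the reaction was started with an NADPH regenerating system; a no-NADPH control ran to 60 min. Samples were quenched with acetonitrile at 0–60 min and analysed by LC-MS/MS. T½ and CLint(mic) (µL/min/mg) come from first-order elimination kinetics.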

In data set [5] the target is BTK mutation-type C481S kinase (Homo sapiens (Human), UniProt Q06187, C481S). The data set can be described thus: BTK-C481S kinase activity inhibition test in vitro (Caliper EZ Reader). Format: biochemical. The method, boiled down:
as §1

Data set [6] is described as follows: Liver microsome metabolic stability test, human. Format: in vitro ADME. The conditions noted are these: for half-life: liver microsomes, read-out: T½. The procedure, abridged: as §14
On the technique in general: Liver microsomes are vesicles of endoplasmic reticulum, rich in cytochrome P450 enzymes.

The test system of data set [7] is TMD8 mouse subcutaneous xenograft tumor. Description: TMD8 pharmacodynamic model test (mouse subcutaneous xenograft tumor). Format: in vivo. The protocol: Test Example 7: TMD8 Pharmacodynamic Model Test
Human diffuse large B-cell lymphoma TMD8 cells were monolayer-cultured in vitro in RPMI1640 medium with 10% fetal bovine serum, 100 U/mL penicillin and 100 µg/mL streptomycin, in a 37° C., 5% CO2 incubator. Routine digestion with trypsin-EDTA was performed twice a week for passaging. When the cell density was 80%-90% and the number reached the requirement, cells were harvested, counted and inoculated. 0.2 ml (1×10^7 cells) of TMD8 cells (added with matrigel at a volume ratio of 1:1) were subcutaneously inoculated on the right back of each mouse. The mice were administered in groups when the average tumor volume reached about 137 mm^3. Tumor diameters were measured twice a week with vernier calipers. The tumor volume was calculated by the formula V = 0.5 a × b^2, where a and b represent the long and short diameters of the tumor, respectively.

Data set [8] concerns DOHH-2-luc tumor cells in the mouse brain. Description: DOHH-2-Luc intracerebral tumor drug efficacy model test. Format: in vivo. As for the experimental part: Test Example 8: DOHH-2-Luc Intracerebral Tumor Drug Efficacy Model Test
DOHH-2-luc tumor cells were cultured in vitro with RPMI 1640 medium containing 10% fetal bovine serum and 500 ng/mL puromycin in a 37° C., 5% CO2 incubator. […] Tumor cells in logarithmic growth phase were used for inoculation of tumors in vivo.
2. Inoculation of Tumor Cell and Grouping
After the animal was anesthetized by intramuscular injection of Zoletil, it was fixed on the operating table in a prone position. The skin on the top of the head was disinfected with iodine and 75% alcohol respectively, and the skin was cut about 0.5 cm along the midline of the head to expose the coronal and sagittal lines. Being located about 0.5-1.0 mm above the coronal line and about 2 mm to the right of the sagittal line by using a brain locator, a hole was drilled with a 1 mL syringe needle. The micro-injector was inserted vertically to a depth of 3 mm at the location, slowly (about 1 min) injected with 3 × 10^5 DOHH-2-luc tumor cells /2 µL suspension and kept for 1 min. After pulling out the needle, the needle hole was quickly sealed with bone wax, and the wound was sutured with a stapler. About the 7th day after tumor inoculation, the animals were randomly divided into 5 groups according to the body weight of the animals and the optical signal intensity of the tumor site, with 5 animals in each group.
The mice were imaged 1-2 times a week according to their state using the small animal in vivo imaging system IVIS Lumina III (Perkin Elmer). The bioluminescence imaging (BLI, unit: photons/s) signal intensity at the tumor cell inoculation site of mouse was monitored as the main indicator for evaluating tumor growth and drug efficacy. The specific operation is as follows:
The mice were intraperitoneally injected with D-luciferin (15 mg/mL, 5 µL/g according to the body weight of the experimental animal), and then inhaled anesthetized with 1%-2% isoflurane. 10 min after the injection of D-luciferin, the animals were imaged with IVIS Lumina III. The data were analyzed and processed using Living Image software (Perkin Elmer), and the optical signal intensity in ROI (regions of interest) of each animal was calculated.

The conditions of data set [9]: mice; cited from earlier work.
Data set [10] relates to BT474 cell proliferation. Description: In vitro cell proliferation inhibitory activity test (CTG), BT474. Format: cell-based. As for the experimental part: as §2, §3, §4, §5, §6, §7, §8, §9, §10, §11, §12
(1) 24 h after the cells were plated, the compounds acted alone, and 99 µL of growth medium was added to each well, followed by 1 µL of the compound prepared in step 3. […]
as §13
IC50 was calculated by using GraphPad Prism 8 software. […]

For data set [11] the following is noted: dog PK experiments; cited from earlier work.

Usually pIC50 stands for −log10 of the IC50, conventionally taken in molar units. High values mean a low IC50, low ones a high IC50. One may read the Cmax as the peak of the concentration-time curve. One may read the AUC(0-inf) as total exposure, with the tail of the curve extrapolated. Low values mean low exposure, high ones high exposure. Broadly, the bioavailability is the share of a dose that reaches the circulation, judged against a reference dose that is usually intravenous.

pIC50: −log10 of the molar value. Where two headings read alike, the source gives them in different places.

Sequence of BTK wild-type kinase (Q06187 whole entry): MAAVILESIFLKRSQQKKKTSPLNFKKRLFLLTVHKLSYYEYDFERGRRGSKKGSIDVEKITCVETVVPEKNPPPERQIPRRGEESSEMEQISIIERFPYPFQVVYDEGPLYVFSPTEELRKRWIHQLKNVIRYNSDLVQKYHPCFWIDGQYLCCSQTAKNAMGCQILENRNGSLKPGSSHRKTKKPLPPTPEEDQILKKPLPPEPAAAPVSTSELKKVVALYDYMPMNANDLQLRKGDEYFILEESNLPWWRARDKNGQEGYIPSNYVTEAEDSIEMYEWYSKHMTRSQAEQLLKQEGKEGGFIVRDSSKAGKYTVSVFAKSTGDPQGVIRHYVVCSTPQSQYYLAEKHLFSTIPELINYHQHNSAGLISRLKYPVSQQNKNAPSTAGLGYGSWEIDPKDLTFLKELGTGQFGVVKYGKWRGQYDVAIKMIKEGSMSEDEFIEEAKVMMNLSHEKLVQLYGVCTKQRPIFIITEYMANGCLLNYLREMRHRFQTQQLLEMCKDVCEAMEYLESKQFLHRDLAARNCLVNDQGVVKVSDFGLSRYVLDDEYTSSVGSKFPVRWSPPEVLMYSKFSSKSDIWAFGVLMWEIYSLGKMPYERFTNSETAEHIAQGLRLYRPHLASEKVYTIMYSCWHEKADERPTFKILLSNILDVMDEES
Sequence of BTK mutation-type C481S kinase (Q06187 whole entry C481S): as the sequence (Q06187 whole entry) above, with C481S counted along it

In the case of `Nc1nccn2c([C@@H]3CC[C@H](CO)OC3)nc(-c3ccc(C(=O)Nc4ccccn4)cc3)c12` (single isomer, unassigned) [Compound 2-A-P1], the figures for the pIC50 in data set [1], in data set [2] and in data set [5] were more than 8.30, 7.21 and more than 8.30, respectively. Also, the “AUC(0-∞)” value in data set [3] turned out to be 77004 ng·h/mL. The “Cl” value in [3] was 2.18 mL/min/kg. Further, in [3], the “Cmax” value was 25188 ng/mL. In addition, the “T½” value was 2.21 h in data set [3], more than 2.42 h in data set [4] (0.5 mg/mL protein) and more than 2.42 h in [6] (0.5 mg/mL protein). The “CLint” value in data set [4] and in data set [6] was less than 9.6 µL/min/mg in each case. Further, the “%Remaining (60 min)” value in data set [4] came to 95.5%; in [6], 122.5%.
`Nc1nccn2c(C3CCC(CO)OC3)nc(-c3ccc(C(F)(F)c4ccccc4)cc3)c12` (single isomer, unassigned) [Compound 111-P1]: the pIC50 is more than 8.30 in [1], 7.14 in [2] and more than 8.30 in data set [5]. Moreover, in data set [7] (20 mg/kg), the “TGI (tumor inhibition rate)” value is on record as 93%. For the same compound, the “TGI relative to that of Tirabrutinib” value in data set [7] (20 mg/kg) is approximately 2 times. The “inhibitory effect against the tumor compared with Tirabrutinib” value is “significantly better inhibitory effect against the tumor” in data set [7] (same dose of 20 mg/kg, FIG. 2) and “significantly better inhibitory effect against the tumor” in data set [8] (DOHH2 tumor model in the mouse brain, same dose of 30 mg/kg (BID), FIG. 3). Besides, in [8] (DOHH-2-Luc intracerebral model, same dose, FIG. 4), the “tumor size in the brain by fluorescence image” value is given as “very good inhibitory effect against the tumor”. For the same compound, in data set [8] (mouse, 30 mg/kg (BID), after 21 days of administration), the side effects entry was “no side effects”.
On to `Cc1cc(Nc2ncnc3ccc(NC4=NC(C)(C)CO4)cc23)ccc1Oc1ccn2ncnc2c1` [Tucatinib, reference compound], for which the “Cl” value in data set [3] came to 161.3 mL/min/kg. Moreover, the AUC(0-inf) in [3] (rat) stood at 2270 ng·h/mL. Further, the Cmax in data set [3] (rat, read-out: Cmax) stood at 445 ng/mL. For the same compound, the half-life in data set [3] (rat) was 1.72 h; in [4] (0.5 mg/mL protein), 0.663 h; in [6] (0.5 mg/mL protein) it was 0.53 h. Also, the “%Remaining (60 min)” value in data set [4] is on record as 38.2%; in data set [6] it was 28.8%. Further, the brain permeability rate result in data set [9] is listed as “less than 5%”.
For `Nc1nccn2c(C3CCC(CO)OC3)nc(-c3ccc(C(F)(F)c4ccccc4)cc3)c12` (single isomer, unassigned) [Compound 111-P2], the pIC50 in data set [1] is 7.00 to 7.70; in data set [2], 6.56; in [10], 5.66.
On to `O=C(c1ccc(Oc2ccccc2)cc1Cl)c1c[nH]c2ncnc(N[C@@H]3CC[C@@H](CO)OC3)c12` [ARQ-531, reference compound], for which the “Cl” value in data set [3] was determined as 10.3 mL/min/kg. The compound also yielded an AUC(0-inf) in data set [3] (rat) of 16200 ng·h/mL. Further, the Cmax in data set [3] (rat, read-out: Cmax) was 2410 ng/mL. Further, the half-life in [3] (rat) was 3.98 h; in [4] (0.5 mg/mL protein), more than 2.42 h; in [6] (0.5 mg/mL protein), more than 2.42 h. In addition, the results for the “%Remaining (60 min)” value in data set [4] and in data set [6] were 81.1% and 94.2%, respectively. For the same compound, the bioavailability in [11] is recorded as 38%.

The values above are taken from patent publication US20230364079A1, “COMPOUND AS BRAIN-PERMEABLE BTK OR HER2 INHIBITOR, PREPARATION METHOD THEREFOR, AND USE THEREOF” (CHENGDU HYPERWAY PHARMACEUTICALS CO., LTD., priority 2020, published 2023).
